Measurements published in US11279691B2, “Substituted pyridine and pyrazine compounds as PDE4 inhibitors” (Dart Neuroscience LLC, priority 2013, dated 2022).

target: T1, PDE4D3 (Homo sapiens, UniProt Q08499); format: biochemical; settings: GST-tagged PDE4D3, 200 nM FAM-cAMP, 11-point dose-response; read-out: PD4d3 pEC50 (converted)
T1 construct: GST
T1 sequence (Q08499 1-673 isoform Q08499-2): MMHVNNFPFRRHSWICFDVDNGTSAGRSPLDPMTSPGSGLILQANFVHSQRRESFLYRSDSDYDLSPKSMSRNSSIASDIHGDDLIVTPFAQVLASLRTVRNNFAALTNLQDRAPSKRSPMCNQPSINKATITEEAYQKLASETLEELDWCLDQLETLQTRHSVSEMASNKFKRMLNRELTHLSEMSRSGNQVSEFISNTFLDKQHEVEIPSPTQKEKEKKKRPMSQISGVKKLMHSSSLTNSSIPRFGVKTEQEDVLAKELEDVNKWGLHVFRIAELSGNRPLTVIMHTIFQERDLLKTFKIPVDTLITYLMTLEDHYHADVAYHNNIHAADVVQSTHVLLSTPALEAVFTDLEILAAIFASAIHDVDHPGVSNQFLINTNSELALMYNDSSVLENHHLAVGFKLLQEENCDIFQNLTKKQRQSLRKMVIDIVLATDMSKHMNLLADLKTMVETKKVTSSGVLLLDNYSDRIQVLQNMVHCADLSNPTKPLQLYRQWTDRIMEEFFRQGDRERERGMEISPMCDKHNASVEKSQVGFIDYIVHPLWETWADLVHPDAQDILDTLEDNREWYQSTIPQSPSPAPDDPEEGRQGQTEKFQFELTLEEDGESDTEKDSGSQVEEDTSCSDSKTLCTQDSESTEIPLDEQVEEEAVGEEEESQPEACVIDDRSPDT

Compound | EC50
COc1ncc(Cc2cnc(C)cn2)cc1-c1cccc(Cl)c1 [Example 377, 2-{[5-(3-Chlorophenyl)-6-methoxypyridin-3-yl]methyl}-5-methylpyrazine] | < 100 nM
COc1ncc(Cc2ccc(C#N)cn2)cc1-c1cccc(Cl)c1 [Example 378, 6-{[5-(3-Chlorophenyl)-6-methoxypyridin-3-yl]methyl}pyridine-3-carbonitrile] | 100 to 1000 nM
COc1ncc(Cc2cnc(N)cn2)cc1-c1ccc(Cl)c(F)c1 [Example 379, 5-{[5-(4-Chloro-3-fluorophenyl)-6-methoxypyridin-3-yl]methyl}pyrazin-2-amine] | 100 to 1000 nM
COc1ncc(Cn2nnnc2C)cc1-c1cccc(Cl)c1 [Example 380, 3-(3-Chlorophenyl)-2-methoxy-5-[(5-methyl-1H-1,2,3,4-tetrazol-1-yl)methyl]pyridine] | < 100 nM
COc1ncc(Cn2nnc(CO)n2)cc1-c1ccc(F)cc1 [Example 381, (2-{[5-(4-Fluorophenyl)-6-methoxypyridin-3-yl]methyl}-2H-1,2,3,4-tetrazol-5-yl)methanol] | 100 to 1000 nM
COc1ncc(Cn2nnnc2CO)cc1-c1ccc(F)cc1 [Example 382, (1-{[5-(4-Fluorophenyl)-6-methoxypyridin-3-yl]methyl}-1H-1,2,3,4-tetrazol-5-yl)methanol] | 1000 to 10000 nM
COc1ncc(Cn2nnc(CO)n2)cc1-c1ccc(F)c(F)c1 [Example 383, (2-{[5-(3,4-Difluorophenyl)-6-methoxypyridin-3-yl]methyl}-2H-1,2,3,4-tetrazol-5-yl)methanol] | 100 to 1000 nM
COc1ncc(Cn2nnnc2CO)cc1-c1ccc(F)c(F)c1 [Example 384, (1-{[5-(3,4-Difluorophenyl)-6-methoxypyridin-3-yl]methyl}-1H-1,2,3,4-tetrazol-5-yl)methanol] | 1000 to 10000 nM
COc1ncc(Cn2nnc(CO)n2)cc1-c1ccc(Cl)c(F)c1 [Example 385, (2-{[5-(4-Chloro-3-fluorophenyl)-6-methoxypyridin-3-yl]methyl}-2H-1,2,3,4-tetrazol-5-yl)methanol] | 100 to 1000 nM
COc1ncc(Cn2nnnc2CO)cc1-c1ccc(Cl)c(F)c1 [Example 386, (1-{[5-(4-Chloro-3-fluorophenyl)-6-methoxypyridin-3-yl]methyl}-1H-1,2,3,4-tetrazol-5-yl)methanol] | 1000 to 10000 nM
COc1ncc(Cn2nnnc2CO)cc1-c1cccc(Cl)c1 [Example 387, (1-{[5-(3-Chlorophenyl)-6-methoxypyridin-3-yl]methyl}-1H-1,2,3,4-tetrazol-5-yl)methanol] | 1000 to 10000 nM
COc1ncc(Cn2nnc(CO)n2)cc1-c1cccc(Cl)c1 [Example 388, (2-{[5-(3-Chlorophenyl)-6-methoxypyridin-3-yl]methyl}-2H-1,2,3,4-tetrazol-5-yl)methanol] | 100 to 1000 nM
COc1ncc(Cc2cnc(N3CCC(O)C3)nc2)cc1-c1cccc(Cl)c1 (stereo not drawn) [Example 389, 1-(5-{[5-(3-Chlorophenyl)-6-methoxypyridin-3-yl]methyl}pyrimidin-2-yl)pyrrolidin-3-ol] | 100 to 1000 nM
COc1ncc(Cc2cnc(N3CC(O)C3)nc2)cc1-c1cccc(Cl)c1 [Example 390, 1-(5-{[5-(3-Chlorophenyl)-6-methoxypyridin-3-yl]methyl}pyrimidin-2-yl)azetidin-3-ol] | 100 to 1000 nM
COc1ncc(Cc2cnc(NCCO)nc2)cc1-c1cccc(Cl)c1 [Example 391, 2-[(5-{[5-(3-Chlorophenyl)-6-methoxypyridin-3-yl]methyl}pyrimidin-2-yl)amino]ethan-1-ol] | < 100 nM
CCOc1ncc(Cn2nnc(C)n2)cc1-c1ccc(F)cc1 [Example 392, 2-Ethoxy-3-(4-fluorophenyl)-5-[(5-methyl-2H-1,2,3,4-tetrazol-2-yl)methyl]pyridine] | < 100 nM
CCOc1ncc(Cn2nnc(C)n2)cc1-c1ccc(F)c(F)c1 [Example 393, 3-(3,4-Difluorophenyl)-2-ethoxy-5-[(5-methyl-2H-1,2,3,4-tetrazol-2-yl)methyl]pyridine] | < 100 nM

Compound | EC50
CCOc1ncc(Cn2nnc(C)n2)cc1-c1ccnc(OC(F)F)c1 [Example 394, 3-[2-(Difluoromethoxy)pyridin-4-yl]-2-ethoxy-5-[(5-methyl-2H-1,2,3,4-tetrazol-2-yl)methyl]pyridine] | < 100 nM
CCOc1ncc(Cn2nnnc2C)cc1-c1ccc(F)c(F)c1 [Example 395, 3-(3,4-Difluorophenyl)-2-ethoxy-5-[(5-methyl-1H-1,2,3,4-tetrazol-1-yl)methyl]pyridine] | < 100 nM
CCOc1ncc(Cn2nnnc2C)cc1-c1ccnc(OC(F)F)c1 [Example 396, 3-[2-(Difluoromethoxy)pyridin-4-yl]-2-ethoxy-5-[(5-methyl-1H-1,2,3,4-tetrazol-1-yl)methyl]pyridine] | < 100 nM
CCOc1ncc(Cn2nnnc2C)cc1-c1ccc(Cl)c(F)c1 [Example 397, 3-(4-Chloro-3-fluorophenyl)-2-ethoxy-5-[(5-methyl-1H-1,2,3,4-tetrazol-1-yl)methyl]pyridine] | 100 to 1000 nM
CCOc1ncc(Cn2nnnc2C)cc1-c1ccc(F)c(Cl)c1 [Example 398, 3-(3-Chloro-4-fluorophenyl)-2-ethoxy-5-[(5-methyl-1H-1,2,3,4-tetrazol-1-yl)methyl]pyridine] | < 100 nM
CCOc1ncc(Cn2nnnc2C)cc1-c1cccc(OC(F)F)c1 [Example 399, 3-[3-(Difluoromethoxy)phenyl]-2-ethoxy-5-[(5-methyl-1H-1,2,3,4-tetrazol-1-yl)methyl]pyridine] | < 100 nM
CCOc1cc(-c2cc(Cn3nnnc3C)cnc2OCC)ccn1 [Example 400, 2-Ethoxy-3-(2-ethoxypyridin-4-yl)-5-[(5-methyl-1H-1,2,3,4-tetrazol-1-yl)methyl]pyridine] | 100 to 1000 nM
CCOc1cccc(-c2cc(Cn3nnnc3C)cnc2OCC)c1 [Example 401, 2-Ethoxy-3-(3-ethoxyphenyl)-5-[(5-methyl-1H-1,2,3,4-tetrazol-1-yl)methyl]pyridine] | 100 to 1000 nM
CCOc1ncc(Cn2nnnc2C)cc1-c1cc(F)cc(OC)c1 [Example 402, 2-Ethoxy-3-(3-fluoro-5-methoxyphenyl)-5-[(5-methyl-1H-1,2,3,4-tetrazol-1-yl)methyl]pyridine] | 100 to 1000 nM
CCOc1ncc(Cn2cc(C(F)F)nc2C)nc1-c1cccc(Cl)c1 [Example 403, 3-(3-Chlorophenyl)-5-{[4-(difluoromethyl)-2-methyl-1H-imidazol-1-yl]methyl}-2-ethoxypyrazine] | 100 to 1000 nM
CCOc1cc(-c2cc(Cc3cnc(CO)c(F)c3)cnc2OCC(F)F)ccn1 [Example 404, (5-{[6-(2,2-Difluoroethoxy)-5-(2-ethoxypyridin-4-yl)pyridin-3-yl]methyl}-3-fluoropyridin-2-yl)methanol] | < 100 nM
CCOc1ncc(Cc2cnc(CO)c(F)c2)cc1-c1ccnc(OC(F)F)c1 [Example 405, [5-({5-[2-(Difluoromethoxy)pyridin-4-yl]-6-ethoxypyridin-3-yl}methyl)-3-fluoropyridin-2-yl]methanol] | < 100 nM
Cc1nc(CO)cn1Cc1cnc(OCC(F)F)c(-c2cccc(Cl)c2)c1 [Example 406, (1-{[5-(3-Chlorophenyl)-6-(2,2-difluoroethoxy)pyridin-3-yl]methyl}-2-methyl-1H-imidazol-4-yl)methanol] | < 100 nM
COc1cc(-c2cc(Cn3cnc(N)n3)cnc2OC)ccc1F [Example 407, 1-{[5-(4-Fluoro-3-methoxyphenyl)-6-methoxypyridin-3-yl]methyl}-1H-1,2,4-triazol-3-amine] | 1000 to 10000 nM
CCOC(=O)Cc1ccc(Cc2cnc(OC)c(-c3ccc(F)c(F)c3)c2)cc1 [Intermediate 49, Ethyl 2-(4-{[5-(3,4-difluorophenyl)-6-methoxypyridin-3-yl]methyl}phenyl)acetate] | < 100 nM
CCOC(=O)Cc1ccc(Cc2cnc(OC)c(-c3cccc(Cl)c3)c2)cc1 [Intermediate 50, Ethyl 2-(4-{[5-(3-chlorophenyl)-6-methoxypyridin-3-yl]methyl}phenyl)acetate] | 100 to 1000 nM
